Where no end group is shown, it is not given here. The star is where a group is joined. For = O=C*
How the values were obtained:
Type in all cases: cell-based, human
ERα = ERα mRNA by RT-PCR in stimulated MDA-MB-468 cells; details: time points 6, 12, 18 and 24 hours
Protocol: Breast cancer cells were grown in 6 well plates and stimulated with recombinant Wnt-5a protein (rW5a) or the Wnt-5a derived Foxy-5 peptide (F5), for 6, 12, 18 or 24 h. RNA was extracted at the end time point, cDNA synthesized and subjected to RT-PCR for ERα and the housekeeping gene, β-actin. A: MDA-MB-231 breast cancer cells, B: MDA-MB-468 breast cancer cells. The positive control (Pos) is RNA extracted from T47D cells which express ERα. The negative control represents a water control.
Stimulation of cells was performed with recombinant Wnt-5a (0.6 μg/ml) and recombinant Wnt-3a (0.1 μg/ml and in a control experiment, 0.6 μg/ml) (R&D Systems Abington, UK) for times as indicated. The Wnt-5a derived formylated hexapeptide, Foxy-5 (formyl-MDGCEL) (SEQ. ID. NO. 1) designed in the laboratory of the inventors, and a formylated random hexapeptide (formyl-MSADVG) (SEQ: ID: NO: 16) were either synthesized by Pepscan Presto (Lelystad, The Netherlands) or Inbiolabs (Tallinn, Estonia). The peptides were purified by RP-HPLC and mass spectrometry, and the >95% pure peptides were synthesized three times. […]
RNA extraction was performed in a designated clean RNA area with the addition of 500 μl TRIzol to each sample. […] The RNA concentration was measured using a Nanodrop Spectrophotometer ND-1000 (Bio-Rad (Hercules Calif.)). […]

[1] = tested on: progesterone receptor (PR); assay: Progesterone receptor mRNA by semi-nested RT-PCR in MDA-MB-231 cells; details: after 96 hours stimulation
Source text: A: Following treatment, cells were lysed and subjected to SDS-PAGE, transferred to nitrocellulose membranes and blotted for phospho-ERα expression. The positive control (Pos) represents cell lysates from T47D cells expressing ERα B and C: RNA was also extracted from stimulated cells and samples tested for progesterone receptor (PR) (B) and pS2 (C) mRNA using semi-nested RT-PCR. The positive control (Pos) is RNA extracted from T47D cells that express ERα. The negative control represents a water control. PCR results are representative of three separate experiments.
cDNA was synthesized from 1 μg of total RNA using M-MuLV reverse transcriptase (Fermentas) in a MJ Mini Personal Thermal Cycler (Bio-Rad (Hercules Calif.)). All RT-PCR was performed in a designated clean PCR hood. RT-PCR was performed using a master mix containing with 5 μl of 10× buffer, 5 μl of 25 mM MgCl2, 1 μl 10 mM dNTP, 1 μl forward primer, 1 μl reverse primer and 0.2 μl of Taq polymerase (Fermentas (Ontario, Canada)) per sample. For detection of the progesterone receptor (PR), semi nested RT-PCR was performed to increase sensitivity, whereby 10 μl of the initial PCR reaction product was added to a second PCR reaction with a second internal reverse primer. Both A and β isoforms are amplified with these primers.

MDA-MB-231 cells = assay: Nuclear (Hoechst) staining for apoptotic cells after tamoxifen; details: MDA-MB-231, stimulation 24 and 48 hours, tamoxifen 5 μM for the last 20 hours
Protocol: MDA-MB-231 cells were grown in 6 well plates and stimulated with recombinant Wnt-5a protein (rW5a) or the Wnt-5a derived Foxy-5 peptide (F5), for 24 or 48 h. Cells were treated with tamoxifen for the final 20 h and their apoptotic responses were measured via different methods. […] Arrows highlight apoptotic cells. Bars represent […]. B: Following treatment with rW5a, F5 and tamoxifen, or tamoxifen alone, cells were lysed and subjected to SDS-PAGE, transferred to nitrocellulose membranes and blotted for cleaved caspase 3. C: Treated cells were assessed for their relative caspase 3 activity using fluorometric spectrophotometry. The graph represents 6 separate experiments. * P<0.01, ** P<0.001. D: MTT assays were also performed on MDA-MB-231 cells treated with rWnt-5a, F5 and tamoxifen, or tamoxifen alone (MDA-MB-231 and MCF-7 cells) to assess cell growth inhibition. The graph represents the average of 6 separate experiments, with standard deviation represented by error bars. ** P<0.01, *** P<0.001.
MDA-MB-231 cells were plated on cover slips and allowed to adhere. Wnt-5a (0.6 μg/ml) or Foxy-5 (100 μM) were added for 24 or 48 hours. Cells were then treated with tamoxifen (5 μM) for the last 20 hours. MCF-7 cells were used as a positive control. […] The morphology was analyzed with Nikon E800 Eclipse Microscope with 60× objective.

| Molecule | stimulation time after which ERα mRNA was detected (ERα) [h] | PR mRNA [1] | apoptotic cells by Hoechst staining in response to tamoxifen (MDA-MB-231 cells) |
| --- | --- | --- | --- |
| formyl-MDGCEL (For-MDGCEL; listed as Homo sapiens) [Foxy-5] | 6 | detected | apoptotic cells displaying altered nuclear morphology |
| recombinant Wnt-5a: recombinant Wnt-5a protein (R&D Systems) (protein, UniProt P41221 62-380, looked up) Protein Wnt-5a: IIGAQPLCSQLAGLSQGQKKLCHLYQDHMQYIGEGAKTGIKECQYQFRHRRWNCSTVDNTSVFGRVMQIGSRETAFTYAVSAAGVVNAMSRACREGELSTCGCSRAARPKDLPRDWLWGGCGDNIDYGYRFAKEFVDARERERIHAKGSYESARILMNLHNNEAGRRTVYNLADVACKCHGVSGSCSLKTCWLQLADFRKVGDALKEKYDSAAAMRLNSRGKLVQVNSRFNSPTTQDLVYIDPSPDYCVRNESTGSLGTQGRLCNKTSEGMDGCELMCCGRGYDQFKTVQTERCHCKFHWCCYVKCKKCTEIVDQFVCK | 12 | detected | apoptotic cells displaying altered nuclear morphology |

Reference: patent publication US20110124574A1, “RESTORATION OF ESTROGEN RECEPTOR-(ALPHA) ACTIVITY” (priority 2008, published 2011)
